These results are taken from patent publication US8598234B2, “Compositions of dibromomalonamide and their use as biocides” (Dow Global Technologies LLC, priority 2009, dated 2013).

The assay concerns mixture of Pseudomonas aeruginosa, Klebsiella pneumoniae, Staphylococcus aureus, and Bacillus subtilis. Put plainly: Growth inhibition assay (microtiter plate-based synergy assay). The assay is classed as cell-based. Particulars: 24 h; for concentration needed to prevent at least 90% of the growth (I90) of the microbial consortium: active used alone. The text has this: Details of each assay are provided below.
Growth Inhibition Assay. […] Regardless of the mechanism of action, the impact of a biocide (or combination of biocides) can be measured over time on the basis of an increase in the size of the community.
The assay measures the efficacy of one or more biocides at preventing growth of a consortium of bacteria in a dilute mineral salts medium. The medium contains (in mg/l) the following components: FeCl3.6H2O (1); CaCl2.2H2O (10); MgSO4.7H2O (22.5); (NH4)2SO4 (40); KH2PO4 (10); K2HPO4 (25.5); Yeast Extract (10); and glucose (100). After all components are added to deionized water, the pH of the medium is adjusted to 7.5. Following filter sterilization, aliquots are dispensed in 100 ul quantities to sterile microtiter plate wells. Dilutions of 2,2-dibromomalonamide (“DBMAL”) and/or “Biocide B” are then added to the microtiter plate. After preparing the combinations of actives as illustrated below, each well is inoculated with 100 μl of a cell suspension containing ca. 1×10^6 cells per milliliter of a mixture of Pseudomonas aeruginosa, Klebsiella pneumoniae, Staphylococcus aureus, and Bacillus subtilis. The final total volume of medium in each well is 300 μl. Once prepared as described herein, the concentration of each active ranges from 25 ppm to 0.195 ppm as illustrated in Table 1. The resulting matrix allows testing of eight concentrations of each active and 64 combinations of actives in the ratios (of actives).
Controls (not shown) contain the medium with no biocide added. After preparing the combinations of actives as illustrated above, each well is inoculated with 100 μl of a cell suspension containing ca. 1×10^6 cells per milliliter of a mixture of Pseudomonas aeruginosa, Klebsiella pneumoniae, Staphylococcus aureus, and Bacillus subtilis. The final total volume of medium in each well is 300 μl.
Immediately after the microtiter plates are prepared, the optical density (OD) readings for each well is measured at 580 nm and the plates are then incubated at 37° C. for 24 hr. After the incubation period, the plates are gently agitated before OD580 values are collected. The OD580 values at T0 are subtracted from T24 values to determine the total amount of growth (or lack thereof) that occurs. These values are used to calculate the percent inhibition of growth caused by the presence of each biocide and each of the 64 combinations.
where • CDBMAL: Concentration of DBMAL required to inhibit ˜90% of bacterial growth when used alone • CB: Concentration of biocide (B) required to inhibit ˜90% of bacterial growth when used alone.
MDBMAL: Concentration of DBMAL required to inhibit ˜90% of bacterial growth when used in combination with biocide (B).
MB: Concentration of biocide (B) required to inhibit ˜90% of bacterial growth when used in combination with DBMAL
The SI values are interpreted as follows:
• SI<1: Synergistic combination • SI=1: Additive combination • SI>1: Antagonistic combination
In the Examples below, the amounts of biocides in the solution are measured in mg per liter of solution (mg/l). Since solution densities are approximately 1.00, the mg/l measurement corresponds to weight ppm. Both units may therefore be used interchangeably in the Examples.

Where [1] appears, read: read-out: % Inhibition of growth by SOPP.

The structures appear in SMILES notation. Read-outs that look alike come from different tables or passages of the source.

Regarding `NC(=O)C(Br)(Br)C(N)=O` [DBMAL, 2,2-dibromomalonamide], the “concentration needed to prevent at least 90% of the growth (I90) of the microbial consortium” value was found to be 12.5 mg/L. In addition, where the note is “DBMAL alone 0.19 mg/l, OD580”, the inhibition at […] amounted to 0%. Under “DBMAL alone 0.39 mg/l, OD580”, the inhibition at 0.39 µg/mL stood at 4%. Besides, the inhibition at 0.78 µg/mL (DBMAL alone 0.78 mg/l, OD580, read-out: % Inhibition of growth by DBMAL) turned out to be 7%. Besides, for the setting “DBMAL alone 1.56 mg/l, OD580, read-out: % Inhibition of growth by DBMAL”, the inhibition at 1.56 µg/mL worked out at 0%. Under “DBMAL alone 3.13 mg/l, OD580, read-out: % Inhibition of growth by DBMAL”, the inhibition at 3.13 µg/mL was found to be 0%. The inhibition at 6.25 µg/mL (DBMAL alone 6.25 mg/l, OD580, read-out: % Inhibition of growth by DBMAL) worked out at 49%. In addition, under “DBMAL alone 12.5 mg/l, OD580, read-out: % Inhibition of growth by DBMAL”, the inhibition at 12.5 µg/mL worked out at 100%. The inhibition at 25 µg/mL (DBMAL alone 25.0 mg/l, OD580, read-out: % Inhibition of growth by DBMAL) amounted to 100%.

On to `Oc1ccccc1-c1ccccc1.[Na]` [SOPP, sodium ortho-phenylphenol], for which the “concentration needed to prevent at least 90% of the growth (I90) of the microbial consortium” value was found to be 500 mg/L. Under setting [1], the inhibition at 0.78 µg/mL stood at 0%, the inhibition at 1.56 µg/mL was 17%, the inhibition at 3.13 µg/mL amounted to 0% and the inhibition at 6.25 µg/mL stood at 37%. Under setting [1], the inhibition at 12.5 µg/mL worked out at 68%, the inhibition at 25 µg/mL was found to be 98% and the inhibition at 50 µg/mL came to 98%.

One may read the inhibition as the share of the control response that was lost under treatment.
